The values that follow come from publication PMC5218480 (PLoS ONE, 2017).

Each structure is given as a SMILES string.

The assay has as its system MV-4-11 cells. Nature of the assay: Gene expression microarray analysis (Affymetrix PrimeView) and GSEA. The format is cell-based, human. More on the design: RFU PODN (11730768_x_at) / Fold change /veh PODN (11730768_x_at) / RFU LINC00158 (11744669_a_at) / Fold change /veh LINC00158 (11744669_a_at) / RFU DUSP10 (11751237_a_at) / Fold change /veh DUSP10 (11751237_a_at) / RFU ID3 (11757404_x_at) / Fold change /veh ID3 (11757404_x_at) / RFU PLEKHG5 (11737974_s_at) / Fold change /veh PLEKHG5 (11737974_s_at) / RFU LRRC4B (11730491_at) / Fold change /veh LRRC4B (11730491_at) / RFU GIMAP4 (11747438_a_at) / Fold change /veh GIMAP4 (11747438_a_at) / RFU KRT8 (11758183_x_at) / Fold change /veh KRT8 (11758183_x_at) / RFU CNN1 (11734310_a_at) / Fold change /veh CNN1 (11734310_a_at) / RFU VPS37D (11726825_at) / Fold change /veh VPS37D (11726825_at) / RFU C10orf10 (11716522_x_at) / Fold change /veh C10orf10 (11716522_x_at) / RFU KIR2DL2 /// KIR2DL4 /// KIR2DL5A /// KIR2DL5B /// KIR2DS1 /// KIR2DS2 /// KIR2DS3 /// KIR2DS4 /// KIR3DL3 /// KIR3DL3 /// KIR3DS1 (11738374_at) / Fold change /veh KIR2DL2 /// KIR2DL4 /// KIR2DL5A /// KIR2DL5B /// KIR2DS1 /// KIR2DS2 /// KIR2DS3 /// KIR2DS4 /// KIR3DL3 /// KIR3DL3 /// KIR3DS1 (11738374_at) / RFU C1QL1 (11718748_at) / Fold change /veh C1QL1 (11718748_at) / RFU TMPRSS4 (11747572_a_at) / Fold change /veh TMPRSS4 (11747572_a_at) / RFU HAMP (11756126_x_at) / Fold change /veh HAMP (11756126_x_at) / RFU RNFT2 (11725882_a_at) / Fold change /veh RNFT2 (11725882_a_at) / RFU NR4A2 (11747474_a_at) / Fold change /veh NR4A2 (11747474_a_at) / RFU ABCC12 (11746883_a_at) / Fold change /veh ABCC12 (11746883_a_at) / RFU TMEM136 (11760407_x_at) / Fold change /veh TMEM136 (11760407_x_at) / RFU CLDN22 /// WWC2 (11732394_at) / Fold change /veh CLDN22 /// WWC2 (11732394_at) / RFU HLA-DPB1 (11760878_x_at) / Fold change /veh HLA-DPB1 (11760878_x_at) / RFU SPINT1 (11716480_a_at) / Fold change /veh SPINT1 (11716480_a_at) / RFU GAP43 (11754022_s_at) / Fold change /veh GAP43 (11754022_s_at) / RFU A4GNT (11735810_at) / Fold change /veh A4GNT (11735810_at) / RFU PRB3 (11715151_x_at) / Fold change /veh PRB3 (11715151_x_at) / RFU TUBB4B (11761932_at) / Fold change /veh TUBB4B (11761932_at) / RFU CAPN14 (11732068_a_at) / Fold change /veh CAPN14 (11732068_a_at) / RFU TMCC2 (11721928_a_at) / Fold change /veh TMCC2 (11721928_a_at) / RFU IRGQ (11745062_a_at) / Fold change /veh IRGQ (11745062_a_at) / RFU FAM174B (11720279_a_at) / Fold change /veh FAM174B (11720279_a_at) / RFU TMPRSS4 (11748680_a_at) / Fold change /veh TMPRSS4 (11748680_a_at) / RFU FAM212B (11763350_a_at) / Fold change /veh FAM212B (11763350_a_at) / RFU PLEKHG5 (11743358_a_at) / Fold change /veh PLEKHG5 (11743358_a_at) / RFU ZSCAN30 (11745921_a_at) / Fold change /veh ZSCAN30 (11745921_a_at) / RFU CMKLR1 (11741424_a_at) / Fold change /veh CMKLR1 (11741424_a_at) / RFU LOC101060620 /// MAPK8IP1 (11723275_at) / Fold change /veh LOC101060620 /// MAPK8IP1 (11723275_at) / RFU SPTSSB (11747773_x_at) / Fold change /veh SPTSSB (11747773_x_at) / RFU PRSS12 (11739890_at) / Fold change /veh PRSS12 (11739890_at) / RFU BIN1 (11741810_x_at) / Fold change /veh BIN1 (11741810_x_at) / RFU WNT11 (11732464_a_at) / Fold change /veh WNT11 (11732464_a_at) / RFU C10orf10 (11716521_a_at) / Fold change /veh C10orf10 (11716521_a_at) / RFU C5orf56 (11738089_at) / Fold change /veh C5orf56 (11738089_at) / RFU CYB561 (11721691_x_at) / Fold change /veh CYB561 (11721691_x_at) / RFU ANKRD19P (11752326_a_at) / Fold change /veh ANKRD19P (11752326_a_at) / RFU OR2T12 /// OR2T33 /// OR2T8 (11738714_s_at) / Fold change /veh OR2T12 /// OR2T33 /// OR2T8 (11738714_s_at) / RFU VCAN (11748164_a_at) / Fold change /veh VCAN (11748164_a_at) / RFU JSRP1 (11732532_at) / Fold change /veh JSRP1 (11732532_at) / RFU KRTAP10-11 (11738290_x_at) / Fold change /veh KRTAP10-11 (11738290_x_at) / RFU MYO3A (11730013_a_at) / Fold change /veh MYO3A (11730013_a_at) / RFU EBF3 (11725865_a_at) / Fold change /veh EBF3 (11725865_a_at) / RFU CAMK2N1 (11719241_x_at) / Fold change /veh CAMK2N1 (11719241_x_at) / RFU C5orf56 (11738088_a_at) / Fold change /veh C5orf56 (11738088_a_at) / RFU OLFML3 (11715873_a_at) / Fold change /veh OLFML3 (11715873_a_at) / RFU LOC100653217 /// NTM (11731650_a_at) / Fold change /veh LOC100653217 /// NTM (11731650_a_at) / RFU MAPK11 (11762145_a_at) / Fold change /veh MAPK11 (11762145_a_at) / RFU FIZ1 (11724087_x_at) / Fold change /veh FIZ1 (11724087_x_at) / RFU OASL (11726364_x_at) / Fold change /veh OASL (11726364_x_at) / RFU SOX15 (11748057_x_at) / Fold change /veh SOX15 (11748057_x_at) / RFU CD79A (11719716_a_at) / Fold change /veh CD79A (11719716_a_at) / RFU HIST1H1D (11736915_at) / Fold change /veh HIST1H1D (11736915_at) / RFU CASKIN2 (11723855_a_at) / Fold change /veh CASKIN2 (11723855_a_at) / RFU LOC730098 (11760151_x_at) / Fold change /veh LOC730098 (11760151_x_at) / RFU OR4N2 (11742367_at) / Fold change /veh OR4N2 (11742367_at) / RFU PRRT2 (11749266_a_at) / Fold change /veh PRRT2 (11749266_a_at) / RFU SNX32 (11753110_a_at) / Fold change /veh SNX32 (11753110_a_at) / RFU CDHR5 (11726645_a_at) / Fold change /veh CDHR5 (11726645_a_at) / RFU RCAN1 (11760418_a_at) / Fold change /veh RCAN1 (11760418_a_at) / RFU FAM167A (11723789_a_at) / Fold change /veh FAM167A (11723789_a_at) / RFU FAM26E (11764081_at) / Fold change /veh FAM26E (11764081_at) / RFU ISYNA1 (11749810_s_at) / Fold change /veh ISYNA1 (11749810_s_at) / RFU ACY1 (11761880_at) / Fold change /veh ACY1 (11761880_at) / RFU 11764098_at / Fold change /veh 11764098_at / RFU SAMD14 (11745864_x_at) / Fold change /veh SAMD14 (11745864_x_at) / RFU NPB (11741838_a_at) / Fold change /veh NPB (11741838_a_at) / RFU TMPRSS6 (11731388_a_at) / Fold change /veh TMPRSS6 (11731388_a_at) / RFU KRTAP10-2 (11738614_at) / Fold change /veh KRTAP10-2 (11738614_at) / RFU ARHGAP8 /// PRR5-ARHGAP8 (11727945_x_at) / Fold change /veh ARHGAP8 /// PRR5-ARHGAP8 (11727945_x_at) / RFU KRTAP5-7 /// NADSYN1 (11734609_at) / Fold change /veh KRTAP5-7 /// NADSYN1 (11734609_at) / RFU RASL12 (11751679_a_at) / Fold change /veh RASL12 (11751679_a_at) / RFU CDKN2B (11736163_a_at) / Fold change /veh CDKN2B (11736163_a_at) / RFU PRF1 (11729649_at) / Fold change /veh PRF1 (11729649_at) / RFU, ZNF638 /// ZNF638-IT1 / Fold change vs veh, ZNF638 /// ZNF638-IT1 / RFU, PANK3 / Fold change vs veh, PANK3 / RFU, SH3YL1 / Fold change vs veh, SH3YL1 / RFU, ZEB2 / Fold change vs veh, ZEB2 / RFU, NRIP1 / Fold change vs veh, NRIP1 / RFU, PTTG1IP / Fold change vs veh, PTTG1IP / RFU, CAPN2 / Fold change vs veh, CAPN2 / RFU, MED14 / Fold change vs veh, MED14 / RFU, SNORA58 / Fold change vs veh, SNORA58 / RFU, C1orf63 / Fold change vs veh, C1orf63 / RFU, LRRFIP1 / Fold change vs veh, LRRFIP1 / RFU, NDUFAF7 / Fold change vs veh, NDUFAF7 / RFU, SLC12A2 / Fold change vs veh, SLC12A2 / RFU, IBTK / Fold change vs veh, IBTK / RFU, ESF1 / Fold change vs veh, ESF1 / Fold change vs veh, TMEM50B / RFU, TAOK1 / Fold change vs veh, TAOK1 / RFU, ACBD3 / Fold change vs veh, ACBD3 / RFU, TMA16 / Fold change vs veh, TMA16 / RFU, RWDD3 / Fold change vs veh, RWDD3 / RFU, BCAT1 / Fold change vs veh, BCAT1 / RFU, EDEM3 / Fold change vs veh, EDEM3 / RFU, TMEM33 / Fold change vs veh, TMEM33 / RFU, WDR75 / Fold change vs veh, WDR75 / RFU, AHCTF1 / Fold change vs veh, AHCTF1 / RFU, TFRC / Fold change vs veh, TFRC / RFU, ZDHHC17 / Fold change vs veh, ZDHHC17 / RFU, NOM1 / Fold change vs veh, NOM1 / RFU, ARL8B / Fold change vs veh, ARL8B / RFU, ZBTB11 / Fold change vs veh, ZBTB11 / RFU, TAMM41 / Fold change vs veh, TAMM41 / RFU, KIAA1704 /// LOC100996395 / Fold change vs veh, KIAA1704 /// LOC100996395 / RFU, ING1 / Fold change vs veh, ING1 / RFU, TRMT61B / Fold change vs veh, TRMT61B / RFU, FUBP3 / Fold change vs veh, FUBP3 / RFU, TP53 / Fold change vs veh, TP53 / RFU, TNKS2 / Fold change vs veh, TNKS2 / RFU, ZFP14 / Fold change vs veh, ZFP14 / RFU, ACTR2 / Fold change vs veh, ACTR2 / RFU, PPP3R1 / Fold change vs veh, PPP3R1 / RFU, PIK3R1 / Fold change vs veh, PIK3R1 / RFU, HNRNPA1 / Fold change vs veh, HNRNPA1 / RFU, RNF170 / Fold change vs veh, RNF170 / RFU, ZNF28 / Fold change vs veh, ZNF28 / RFU, RNGTT / Fold change vs veh, RNGTT / RFU, OGT / Fold change vs veh, OGT / RFU, BRD1 / Fold change vs veh, BRD1 / RFU, MARS / Fold change vs veh, MARS / RFU, ZNF655 / Fold change vs veh, ZNF655 / RFU, FAHD1 / Fold change vs veh, FAHD1 / RFU, BDP1 / Fold change vs veh, BDP1 / RFU, LRRCC1 / Fold change vs veh, LRRCC1 / RFU, ARID1A / Fold change vs veh, ARID1A / RFU, ZNF146 / Fold change vs veh, ZNF146 / RFU, ZNF330 / Fold change vs veh, ZNF330 / RFU, GPN3 / Fold change vs veh, GPN3 / RFU, C9orf123 / Fold change vs veh, C9orf123 / RFU, N4BP2L2 / Fold change vs veh, N4BP2L2 / RFU, ARFIP1 / Fold change vs veh, ARFIP1 / RFU, FAM179B / Fold change vs veh, FAM179B / RFU, BCL10 / Fold change vs veh, BCL10 / RFU, UHRF1BP1L / Fold change vs veh, UHRF1BP1L / RFU, BET1 / Fold change vs veh, BET1 / RFU, CNOT2 / Fold change vs veh, CNOT2 / RFU, ZNF268 / Fold change vs veh, ZNF268 / Fold change vs veh, ZNF507 / RFU, DGCR2 / Fold change vs veh, DGCR2 / RFU, WDSUB1 / Fold change vs veh, WDSUB1 / Fold change vs veh, HSP90B1 /// MIR3652 / RFU, ADSS / Fold change vs veh, ADSS / RFU, GK / Fold change vs veh, GK / RFU, ZNF148 / Fold change vs veh, ZNF148 / RFU, TAF9 / Fold change vs veh, TAF9 / RFU, SLC1A5 / Fold change vs veh, SLC1A5 / RFU, SLMO2 / Fold change vs veh, SLMO2 / RFU, ABCC4 / Fold change vs veh, ABCC4 / RFU, LOC101060439 /// RAP1B / Fold change vs veh, LOC101060439 /// RAP1B / RFU, RFX7 / Fold change vs veh, RFX7 / RFU, GTPBP10 / Fold change vs veh, GTPBP10 / RFU, CNEP1R1 / Fold change vs veh, CNEP1R1 / RFU, BIVM-ERCC5 /// ERCC5 / Fold change vs veh, BIVM-ERCC5 /// ERCC5 / RFU, ILF3 / Fold change vs veh, ILF3 / RFU 11762660_at / Fold change /veh 11762660_at / RFU VCAN (11757783_s_at) / Fold change /veh VCAN (11757783_s_at) / RFU DDX43 (11728927_at) / Fold change /veh DDX43 (11728927_at) / RFU KRT8 (11758188_x_at) / Fold change /veh KRT8 (11758188_x_at) / RFU NKD1 (11759106_at) / Fold change /veh NKD1 (11759106_at) / RFU SRD5A1 (11742802_a_at) / Fold change /veh SRD5A1 (11742802_a_at) / RFU TPSAB1 /// TPSB2 (11721975_s_at) / Fold change /veh TPSAB1 /// TPSB2 (11721975_s_at) / RFU GSTM3 (11746129_a_at) / Fold change /veh GSTM3 (11746129_a_at) / RFU IL23R (11737362_x_at) / Fold change /veh IL23R (11737362_x_at) / RFU TMEM51 (11727254_a_at) / Fold change /veh TMEM51 (11727254_a_at) / RFU PIWIL2 (11732686_x_at) / Fold change /veh PIWIL2 (11732686_x_at) / RFU ORM1 (11744905_x_at) / Fold change /veh ORM1 (11744905_x_at) / RFU CCDC152 (11743942_at) / Fold change /veh CCDC152 (11743942_at) / RFU ECM1 (11717891_a_at) / Fold change /veh ECM1 (11717891_a_at) / RFU IL23R (11748794_a_at) / Fold change /veh IL23R (11748794_a_at) / RFU TNFAIP8L3 (11732012_x_at) / Fold change /veh TNFAIP8L3 (11732012_x_at) / RFU MBOAT4 (11741988_at) / Fold change /veh MBOAT4 (11741988_at) / RFU 11764193_at / Fold change /veh 11764193_at / RFU TMEM53 (11763286_at) / Fold change /veh TMEM53 (11763286_at) / RFU MAGEB2 (11727129_at) / Fold change /veh MAGEB2 (11727129_at) / RFU TMEM200A (11744735_a_at) / Fold change /veh TMEM200A (11744735_a_at) / RFU CCDC152 (11751479_a_at) / Fold change /veh CCDC152 (11751479_a_at) / RFU FAM211A (11726209_a_at) / Fold change /veh FAM211A (11726209_a_at) / RFU RGS16 (11746705_a_at) / Fold change /veh RGS16 (11746705_a_at) / RFU VCAN (11755009_s_at) / Fold change /veh VCAN (11755009_s_at) / RFU RHOB (11743442_s_at) / Fold change /veh RHOB (11743442_s_at) / RFU RGS16 (11720943_a_at) / Fold change /veh RGS16 (11720943_a_at) / RFU RGS16 (11720944_at) / Fold change /veh RGS16 (11720944_at) / RFU, VPS4B / Fold change vs veh, VPS4B / RFU, CREB1 / Fold change vs veh, CREB1 / RFU, DNAJC13 / Fold change vs veh, DNAJC13 / RFU, GNAQ / Fold change vs veh, GNAQ / RFU, CDK5R1 / Fold change vs veh, CDK5R1 / RFU, ZRANB3 / Fold change vs veh, ZRANB3 / RFU, CUL4A / Fold change vs veh, CUL4A / RFU, CCNY / Fold change vs veh, CCNY / RFU, UFL1 / Fold change vs veh, UFL1 / RFU, COG3 / Fold change vs veh, COG3 / RFU, DIAPH2 / Fold change vs veh, DIAPH2 / RFU, SKA2 / Fold change vs veh, SKA2 / RFU, AFF3 / Fold change vs veh, AFF3 / RFU, LMF1 / Fold change vs veh, LMF1 / RFU, IPO11 / Fold change vs veh, IPO11 / RFU, DFFB / Fold change vs veh, DFFB / RFU, FOXP1 / Fold change vs veh, FOXP1 / RFU, CARD8 / Fold change vs veh, CARD8 / RFU, STRN3 / Fold change vs veh, STRN3 / RFU, ADK / Fold change vs veh, ADK / RFU, RASSF2 / Fold change vs veh, RASSF2 / RFU, WIPF1 / Fold change vs veh, WIPF1 / RFU, LARP1B / Fold change vs veh, LARP1B / RFU, RASA1 / Fold change vs veh, RASA1 / RFU, RB1 / Fold change vs veh, RB1 / RFU, PPFIA1 / Fold change vs veh, PPFIA1 / RFU, MAT2A / Fold change vs veh, MAT2A / RFU, CCT5 / Fold change vs veh, CCT5 / RFU, WDR92 / Fold change vs veh, WDR92 / RFU, CUX1 / Fold change vs veh, CUX1 / RFU, TTC7A / Fold change vs veh, TTC7A / RFU, TMEM135 / Fold change vs veh, TMEM135 / RFU, DEPTOR / Fold change vs veh, DEPTOR / RFU, CPM / Fold change vs veh, CPM / RFU, DNAJB6 / Fold change vs veh, DNAJB6 / RFU, CACNA2D3 / Fold change vs veh, CACNA2D3 / RFU, DTX4 / Fold change vs veh, DTX4 / RFU, TFCP2 / Fold change vs veh, TFCP2 / RFU, GMCL1 /// GMCL1P1 / Fold change vs veh, GMCL1 /// GMCL1P1 / RFU, AEBP2 / Fold change vs veh, AEBP2 / RFU, SNHG1 /// SNORD22 /// SNORD25 /// SNORD26 /// SNORD27 /// SNORD28 /// SNORD29 /// SNORD31 / Fold change vs veh, SNHG1 /// SNORD22 /// SNORD25 /// SNORD26 /// SNORD27 /// SNORD28 /// SNORD29 /// SNORD31 / Fold change (Aza/veh), C12orf56 (ProbeSet 11735607_a_at) / Fold change (ACY-1035/veh), C12orf56 (ProbeSet 11735607_a_at) / Fold change (Aza/veh), FGFR1OP (ProbeSet 11751329_s_at) / Fold change (ACY-1035/veh), FGFR1OP (ProbeSet 11751329_s_at) / Fold change (Aza/veh), VPS36 (ProbeSet 11739960_a_at) / Fold change (ACY-1035/veh), VPS36 (ProbeSet 11739960_a_at) / RFU SYPL1 (11715823_x_at) / Fold change /veh SYPL1 (11715823_x_at) / RFU IGFBP7 (11715501_s_at) / Fold change /veh IGFBP7 (11715501_s_at) / RFU REEP3 (11722064_at) / Fold change /veh REEP3 (11722064_at) / RFU IGLL1 (11728026_x_at) / Fold change /veh IGLL1 (11728026_x_at): dose or concentration left out as unconfirmed. The following applies: MV-4-11 cells, 48 hours.

For `Nc1ncn([C@@H]2O[C@H](CO)[C@@H](O)[C@H]2O)c(=O)n1` [azacitidine], the “RFU TMEM200A (11744735_a_at)” value was found to be 6.62 RFU.
